Experimental data as given in patent US11608323B2 (SYNGENTA LIMITED, priority 2013, dated 2023).

What was measured:
Type in all cases: in vivo
[1] = tested on: ECHCG; test: Post-emergence herbicidal activity, glasshouse pot test; settings: Echinochloa crus-galli; application post-emergence; rate 1000 g/Ha; evaluated after 13 days
Protocol: (§1) Seeds of a variety of test species were sown in standard soil in pots. After 8 days cultivation (post-emergence) under controlled conditions in a glasshouse (at 24/16° C., day/night; 14 hours light; 65% humidity), the plants were sprayed with an aqueous spray solution derived from the formulation of the technical active ingredient in acetone/water (50:50) solution containing 0.5% Tween 20 (polyoxyethelyene sorbitan monolaurate, CAS RN 9005-64-5). The test plants were then grown in a glasshouse under controlled conditions (at 24/16° C., day/night; 14 hours light; 65% humidity) and watered twice daily. After 13 days, the test was evaluated (5=total damage to plant; 0=no damage to plant).

[2] = tested on: ZEAMX; test: as above; settings: Zea mays; application post-emergence; rate 1000 g/Ha; evaluated after 13 days
Protocol: as §1

[3] = tested on: AMARE; test: as above; settings: Amaranthus retroflexus; application post-emergence; rate 1000 g/Ha; evaluated after 13 days
Protocol: as §1

[4] = tested on: SETFA; test: as above; settings: Setaria faberi; application post-emergence; rate 1000 g/Ha; evaluated after 13 days
Protocol: as §1

[5] = tested on: ABUTH; test: as above; settings: Abutilon theophrasti; application post-emergence; rate 1000 g/Ha; evaluated after 13 days
Protocol: as §1

[6] = tested on: ECHCG; test: Pre-emergence herbicidal activity, glasshouse pot test; settings: rate 1000 g/Ha, evaluated after 13 days, scale 0-5
Protocol: as §1, with “After” for “After 8 days”, “for one day (pre-emergence)” for “(post-emergence)”

[7] = tested on: ZEAMX; test: as above; settings: rate 1000 g/Ha, evaluated after 13 days, scale 0-5
Protocol: as §1, with “After” for “After 8 days”, “for one day (pre-emergence)” for “(post-emergence)”

[8] = tested on: AMARE; test: as above; settings: rate 1000 g/Ha, evaluated after 13 days, scale 0-5
Protocol: as §1, with “After” for “After 8 days”, “for one day (pre-emergence)” for “(post-emergence)”

[9] = tested on: SETFA; test: as above; settings: rate 1000 g/Ha, evaluated after 13 days, scale 0-5
Protocol: as §1, with “After” for “After 8 days”, “for one day (pre-emergence)” for “(post-emergence)”

[10] = tested on: ABUTH; test: as above; settings: rate 1000 g/Ha, evaluated after 13 days, scale 0-5
Protocol: as §1, with “After” for “After 8 days”, “for one day (pre-emergence)” for “(post-emergence)”

Row | Compound | Post-emergence herbicidal activity ECHCG (damage score 0-5) [1] | Post-emergence herbicidal activity ZEAMX (damage score 0-5) [2] | Post-emergence herbicidal activity AMARE (damage score 0-5) [3] | Post-emergence herbicidal activity SETFA (damage score 0-5) [4] | Post-emergence herbicidal activity ABUTH (damage score 0-5) [5] | ECHCG damage score, application pre-emergence [6] | ZEAMX damage score, application pre-emergence [7] | AMARE damage score, application pre-emergence [8] | SETFA damage score, application pre-emergence [9] | ABUTH damage score, application pre-emergence [10]
1 | CC1C(O)N(c2cc(C(F)F)ccn2)C(=O)N1C (stereo not shown) [Compound A84] | 5 | 4 | 5 | 5 | 5 | 5 | 3 | 5 | 5 | 5
2 | CC1C(O)N(c2cc(C(F)(F)Cl)ccn2)C(=O)N1C (stereo not shown) [Compound A85] | 5 | 4 | 5 | 5 | 5 | 5 | 3 | 5 | 5 | 5
3 | CC1C(O)N(c2cc(C(F)F)c(Cl)cn2)C(=O)N1C (stereo not shown) [Compound A86] | 5 | 2 | 5 | 5 | 5 | 5 | 3 | 5 | 5 | 5
4 | C#CCN1C(=O)N(c2cc(C(F)(F)F)ccn2)C(O)C1C (stereo not shown) [Compound A87] | 5 | 4 | 5 | 5 | 5 | 4 | 3 | 5 | 4 | 5
5 | CCN1C(=O)N(c2cc(C(F)(F)F)ccn2)C(O)C1C (stereo not shown) [Compound A88] | 5 | 3 | 5 | 5 | 5 | 4 | 2 | 5 | 4 | 5
6 | COC(C)(C)c1ccnc(N2C(=O)N(C)C(C)C2O)c1 (stereo not shown) [Compound A89] | 5 | 3 | 5 | 5 | 5 | 4 | 2 | 5 | 4 | 5
7 | CON1C(=O)N(c2cc(C(F)(F)Cl)ccn2)C(O)[C@@H]1C (stereo partly shown) [Compound A90] | 5 | 5 | 5 | 5 | 5 | 4 | 2 | 5 | 4 | 3
